Experimental data reported in ChEMBL document CHEMBL5518195, “N-(Heteroaryl)thiophene sulfonamides as angiotensin AT2 receptor ligands” (Eur J Med Chem, 2024).

Key:
Thoracic aorta = test: Induction of vasorelaxation in pre-contracted thoracic aorta of FVB/N mouse; format: functional, tissue-based
[1] = Stability in mouse liver microsomes assessed as half life at 1 uM in presence of NADPH by LC-MS/MS analysis; format: ADME, Microsome; conditions: time 60 min
[2] = molecular target: T1, Type-1 angiotensin II receptor (Homo sapiens, UniProt P30556); test: Inhibition of [125I][Sar1 Ile8]-angiotensin II binding to human AT1R expressed in HEK293 cells; format: cell-based
T1 sequence (P30556 whole entry): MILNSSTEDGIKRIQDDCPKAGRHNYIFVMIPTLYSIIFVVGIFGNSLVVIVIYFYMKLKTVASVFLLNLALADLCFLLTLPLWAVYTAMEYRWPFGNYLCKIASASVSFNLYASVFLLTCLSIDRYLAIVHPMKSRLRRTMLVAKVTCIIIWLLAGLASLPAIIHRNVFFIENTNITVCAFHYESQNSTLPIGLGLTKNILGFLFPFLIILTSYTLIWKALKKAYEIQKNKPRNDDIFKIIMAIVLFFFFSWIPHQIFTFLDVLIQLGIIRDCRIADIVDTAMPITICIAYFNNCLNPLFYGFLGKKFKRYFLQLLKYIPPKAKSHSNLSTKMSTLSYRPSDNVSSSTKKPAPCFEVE

[3] = Apparent permeability across apical to basal side in human Caco-2 cells at 5 uM measured for 15 to 60 mins by LC-MS/MS analysis; format: ADME, cell-based; conditions: time 15-60 min
[4] = molecular target: T2, Type-2 angiotensin II receptor (Homo sapiens, UniProt P50052); test: Displacement of [125I][Sar1 Ile8]-angiotensin II binding to human AT2R expressed in HEK293 cells; format: cell-based
T2 sequence (P50052 whole entry): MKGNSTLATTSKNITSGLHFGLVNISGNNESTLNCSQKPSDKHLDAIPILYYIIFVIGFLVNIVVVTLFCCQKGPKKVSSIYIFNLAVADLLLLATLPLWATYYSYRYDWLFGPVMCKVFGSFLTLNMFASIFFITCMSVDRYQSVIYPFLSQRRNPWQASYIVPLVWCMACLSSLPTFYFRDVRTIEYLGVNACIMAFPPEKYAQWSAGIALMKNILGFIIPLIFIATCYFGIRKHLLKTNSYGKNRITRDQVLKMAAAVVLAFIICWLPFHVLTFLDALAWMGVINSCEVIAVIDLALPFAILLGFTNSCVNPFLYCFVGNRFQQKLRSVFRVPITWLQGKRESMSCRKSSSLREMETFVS

[5] = Efflux ratio of apparent permeability in human Caco-2 cells at 5 uM measured for 15 to 60 mins by LC-MS/MS analysis; format: ADME, cell-based; conditions: time 15-60 min
[6] = Stability in human liver microsomes assessed as half life at 1 uM in presence of NADPH by LC-MS/MS analysis; format: ADME, Microsome
[7] = Stability in human hepatocytes assessed as half life at 1 uM by LC-MS/MS analysis; format: ADME, cell-based, Hepatocyte

For `CC(C)Cc1cc(-c2cccc(C(=O)Cn3ccnc3C(C)(C)C)c2)c(S(=O)(=O)Nc2ncccn2)s1`, the Activity (Thoracic aorta) was “Dose-Dependent Effect”, the half-life at 1 µM [1] was 17 min and the Ki [2] was over 3000 nM. It also gave a Papp A→B at 5 µM [3] of 4.9 ×10⁻⁶ cm/s, a Ki [4] of 4.9 nM and an efflux ratio at 5 µM [5] of 77. The half-life at 1 µM [6] was 20 min and the half-life at 1 µM [7] was 77 min.
In the case of `CC(C)Cc1cc(-c2cccc(C(=O)Cn3ccnc3C(C)(C)C)c2)c(S(=O)(=O)Nc2ncc(Br)cn2)s1`, the half-life at 1 µM [1] is reported as 11 min, the Ki [4] is reported as 1.5 nM and the half-life at 1 µM [6] is reported as 4.3 min.
For `CC(C)Cc1cc(-c2cccc(C(=O)Cn3ccnc3C(C)(C)C)c2)c(S(=O)(=O)Nc2ncc(C#N)cn2)s1.O=C(O)C(F)(F)F`, the half-life at 1 µM [1] was 2.3 min, the Ki [4] was 4.3 nM and the half-life at 1 µM [6] was 1.2 min.
With `CC(C)Cc1cc(-c2cccc(Cn3ccnc3)c2)c(S(=O)(=O)Nc2nc3ccccc3s2)s1.O=C(O)C(F)(F)F` the half-life at 1 µM [1] was 480 min, the Ki [4] was 800 nM and the half-life at 1 µM [6] was 56 min.
`CC(C)Cc1cc(-c2cccc(C(=O)Cn3ccnc3C(C)(C)C)c2)c(S(=O)(=O)Nc2ccc(C(F)(F)F)cn2)s1` gave a half-life at 1 µM [1] of 3.6 min, a Ki [4] of 29 nM and a half-life at 1 µM [6] of 2.3 min.
With `CC(C)Cc1cc(-c2cccc(C(=O)Cn3ccnc3C(C)(C)C)c2)c(S(=O)(=O)Nc2ncc(Cl)cn2)s1.O=C(O)C(F)(F)F` the half-life at 1 µM [1] was 11 min, the Ki [4] was 3.3 nM and the half-life at 1 µM [6] was 6.2 min.
For `CC(C)Cc1cc(-c2cccc(C(=O)Cn3ccnc3C(C)(C)C)c2)c(S(=O)(=O)Nc2ccc(C#N)cc2)s1`, the half-life at 1 µM [1] was 2.3 min, the Ki [4] was 600 nM and the half-life at 1 µM [6] was 1.2 min.
`CCCCOC(=O)NS(=O)(=O)c1sc(CC(C)C)cc1-c1cccc(Cn2ccnc2)c1` gave a Papp A→B at 5 µM [3] of 3.4 ×10⁻⁶ cm/s.
With `CC(C)Cc1cc(-c2cccc(Cn3ccnc3)c2)c(S(=O)(=O)Nc2nccc(C#N)n2)s1.O=C(O)C(F)(F)F` the half-life at 1 µM [1] was 37 min, the Ki [4] was 100 nM and the half-life at 1 µM [6] was 12 min.
For `CC(C)Cc1cc(-c2cccc(Cn3ccnc3)c2)c(S(=O)(=O)Nc2nccs2)s1`, the half-life at 1 µM [1] was 210 min, the Ki [4] was 650 nM and the half-life at 1 µM [6] was 61 min.
Work on `CC(C)Cc1cc(-c2cccc(Cn3ccnc3)c2)c(S(=O)(=O)Nc2nccc(C(F)(F)F)n2)s1.O=C(O)C(F)(F)F` yielded a half-life at 1 µM [1] of 10 min, a Ki [4] of 300 nM and a half-life at 1 µM [6] of 6.7 min.
With `CC(C)Cc1cc(-c2cccc(C(=O)Cn3ccnc3C(C)(C)C)c2)c(S(=O)(=O)Nc2ncc(C(F)(F)F)cn2)s1` the half-life at 1 µM [1] was 12 min, the Ki [4] was 2 nM and the half-life at 1 µM [6] was 4.8 min.
Compound `Cc1nc(NS(=O)(=O)c2sc(CC(C)C)cc2-c2cccc(Cn3ccnc3)c2)ncc1Cl` has a half-life at 1 µM [1] of 23 min, a Ki [4] of 300 nM and a half-life at 1 µM [6] of 6.6 min.
`COc1ccc2c(c1OCc1ccccc1)C[C@@H](C(=O)O)N(C(=O)C(c1ccccc1)c1ccccc1)C2` [OLODANRIGAN] gave a Papp A→B at 5 µM [3] of 1.8 ×10⁻⁶ cm/s and an efflux ratio at 5 µM [5] of 32.
With `CC(C)Cc1cc(-c2cccc(C(=O)Cn3ccnc3C(C)(C)C)c2)c(S(=O)(=O)Nc2ncc(F)cn2)s1.O=C(O)C(F)(F)F` the half-life at 1 µM [1] was 21 min, the Ki [4] was 1.7 nM and the half-life at 1 µM [6] was 16 min.
For `CC(C)Cc1cc(-c2cccc(Cn3ccnc3)c2)c(S(=O)(=O)Nc2ncc(Br)cn2)s1`, the half-life at 1 µM [1] was 160 min, the Ki [4] was 42 nM and the half-life at 1 µM [6] was 14 min.
In the case of `CC(C)Cc1cc(-c2cccc(C(=O)Cn3ccnc3C(C)(C)C)c2)c(S(=O)(=O)Nc2nccs2)s1`, the half-life at 1 µM [1] is reported as 6.4 min, the Ki [4] is reported as 96 nM and the half-life at 1 µM [6] is reported as 6.7 min.
Compound `CC(C)Cc1cc(-c2cccc(Cn3ccnc3)c2)c(S(=O)(=O)Nc2nccc(C(N)=O)n2)s1.O=C(O)C(F)(F)F` has a half-life at 1 µM [1] of 36 min, a Ki [4] of 1100 nM and a half-life at 1 µM [6] of 43 min.
